Measured values from PubChem BioAssay AID1259418 (Broad Institute, 2018).
Several values for one entry are separate records, joined by “and”; a condition that tells them apart may be missing. Equal entries are not always repeated. Records with an inconclusive call do not appear. Activity calls are given as the source filed them.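 The calls were made as follows: active = fitted half-maximal concentration of signal decrease at or below twice the sample's top tested concentration; inconclusive = flat curve between -70 and -30 percent, or poor fit; inactive = flat within 30 percent, signal rise, or potency above limit.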

Biological target: T. gondii ME49Luc in IFN-y HeLa, luciferase, 72 h
Assay: inhibitors of Toxoplasma growth in IFN-γ-primed HeLa – cell-based, ME49Luc, luciferase, 72 h, dose response (AID 1259418)

SMILES | AC50
O=C1CNC[C@@H]2[C@@H](c3ccc(C#Cc4cccnc4)cc3)[C@@H](CO)N12 | 14.1 µM and 18.2 µM
Cc1ccc(CSC2=Nc3ccccc3C3=NC(CCC(=O)NCc4ccc5c(c4)OCO5)C(=O)N23)c(C)c1 (stereo not drawn) | 27.2 µM
COc1cccc(-c2ccc(C3[C@@H]4CN(Cc5ccccn5)C[C@H]3N4)cc2)c1 (stereo partly drawn) | 15.6 µM
Cc1cccc(CNC2=NCCNC23CCN(S(=O)(=O)c2cc(C)c(C)cc2C)CC3)c1 | 5.49 µM
O=S(=O)(c1ccc2c(c1)CCCC2)N1CCC2(CC1)NCCN=C2NCc1cccc(F)c1 | 5.26 µM
CCCNC(=O)N1[C@H](C#N)[C@H](c2ccc(-c3ccccc3F)cc2)[C@@H]1CO | 3.6 µM
Cc1ccc(S(=O)(=O)N2CCC3(CC2)NCCN=C3NCc2ccccc2Cl)cc1C | 12.2 µM
Cc1ccc(-c2csc(-c3cccn3CC(=O)NCCCN3CCCC(C)C3)n2)cc1 (stereo not drawn) | 17.2 µM
O=C(NCCc1csc(-c2ccccc2)n1)C1CCN(S(=O)(=O)c2cccc(Cl)c2)CC1 | > 39 µM (inactive)
O=S(=O)(c1ccc(Cl)s1)N1CCC2(CC1)NCCN=C2NCc1cc(F)cc(F)c1 | 18 µM
CCCNC(=O)N1C[C@@H]2N[C@H](C1)C2c1ccc(-c2cccc(F)c2)cc1 (stereo partly drawn) | 18.2 µM
Cc1nc2c(cnn2-c2ccccc2)c(=O)n1-c1cccc2ccccc12 | 1.32 µM
COc1ccc(-c2nc(NC3CCN(Cc4ccccc4)CC3)c3ccccc3n2)cc1 | 26.3 µM
O=C(CC1N=C2c3ccccc3N=C(SCc3ccc(Cl)cc3)N2C1=O)NCc1cccs1 (stereo not drawn) | 29.4 µM
OC[C@H]1[C@H](c2ccc(C#Cc3ccccc3F)cc2)[C@@H]2CN(CC3CCOCC3)CCCCN12 | 9.56 µM
Fc1ccccc1CSc1nc(NCc2ccc(Cl)cc2)c2ccccc2n1 | 17.4 µM
C=CC[C@@H]1CC=C[C@@H](C)N1C(=O)CCn1c(C)cc(C)nc1=O | 26.4 µM
C(=C\c1ccc(C2[C@H]3CNC[C@@H]2N3CC2CCOCC2)cc1)/c1ccccc1 (stereo partly drawn) | 26.3 µM
CCCCNC(=O)CCC1N=C2c3ccccc3N=C(SCc3ccc(C)cc3C)N2C1=O (stereo not drawn) | 25.1 µM
O=C(C[C@@H]1CC[C@@H]2[C@H](COC[C@@H](O)CN2S(=O)(=O)c2ccccc2)O1)NCC1CCCCC1 | 20.8 µM
O=C1CCc2cc(S(=O)(=O)NC(c3ccccc3)c3ccccc3)cc3c2N1CCC3 | 12.8 µM
COc1ccccc1N1CCN(C(=O)CC2Nc3c4ccccc4nc(=S)n3C2=O)CC1 (stereo not drawn) | 20.3 µM
CC(C)CCN1Cc2c(C(=O)NC3CCCCC3)ncn2-c2ccccc2S1(=O)=O | 20.6 µM

SMILES | AC50
CCc1ccc(NS(=O)(=O)c2cc3c4c(c2)CCC(=O)N4CCC3)cc1 | 37.7 µM
C/C=C/c1ccc([C@@H]2[C@@H](CO)N3CCCCN(CCC(F)(F)F)C[C@@H]23)cc1 | 17.4 µM
CCc1ccc(S(=O)(=O)N2CCC3(CCCN(Cc4c(C)noc4C)C3)C2)cc1 (stereo not drawn) | 22.9 µM
Cc1ccsc1C(=O)N1CCc2nc(N3CCOCC3)nc(NC(C)C)c2C1 | > 39 µM (inactive)
CC(C)CC#Cc1ccc([C@@H]2[C@@H](CO)N3C(=O)CN(C(=O)c4cccc(F)c4)C[C@@H]23)cc1 | 15 µM and 9.46 µM
CC(C)Cc1ccc(S(=O)(=O)N2CCC3(CC2)NCCN=C3NCc2ccccc2)cc1 | 14.4 µM
O=C(Cc1ccccn1)N1CC(=O)N2[C@@H](CO)[C@@H](c3ccc(C#CCC4CCCC4)cc3)[C@@H]2C1 | 13.2 µM
Cc1ccc(S(=O)(=O)N2CCC3(CC2)NCCN=C3NCc2ccc3c(c2)OCO3)cc1C | 22.4 µM
COc1ccc(-c2nc(NC3CCCC3)c3ccccc3n2)cc1 | 35.8 µM
COc1ccc(-n2c(C)c([N+](=O)[O-])c3ccc(O)cc32)cc1 | 1.41 µM
CC(C)Cc1ccc(S(=O)(=O)N2CCC3(CC2)NCCN=C3NC2CCCCC2)cc1 | 25.6 µM
COc1ccc(-c2nc3c(s2)CN(S(=O)(=O)c2cc(C)cc(C)c2)CC3)cc1 | 3.89 µM and 11.8 µM
CCOc1ccc(-c2nc(CN(c3ccc(OC)cc3)S(=O)(=O)c3ccccc3)c(C)o2)cc1 | 21.1 µM
Cc1cccc(OCC(=O)N2CCC3(CC2)Nc2ccc(Cl)cc2-n2cccc23)c1 | 8.26 µM and 14.9 µM
O=C(c1ccc(-n2nc(C(F)(F)F)c3c2CCCC3)cc1)N1CCC2(CC1)OCCO2 | 1.4 µM
Cc1ccc(N(Cc2nc(-c3cccc(Cl)c3)oc2C)S(=O)(=O)c2cccs2)cc1 | 5.3 µM and 7.96 µM
O=C(C[C@H]1CC[C@@H]2[C@H](COC[C@@H](O)CN2Cc2ccc(Oc3ccccc3)cc2)O1)N1CCN(c2ccccc2)CC1 | 24 µM
O=C(Cc1cccnc1)N1CC(=O)N2[C@H](CO)[C@H](c3ccc(C#CC4CCCCC4)cc3)[C@H]2C1 | 19.4 µM
N#Cc1cccc(-c2ccc(C3[C@@H]4CN(C(=O)c5ccc6c(c5)OCO6)C[C@H]3N4)cc2)c1 (stereo partly drawn) | 14.5 µM and 9.62 µM
O=C(Nc1ccc(F)cc1)N1CC(=O)N2[C@H](C1)[C@H](c1ccc(-c3cccc(F)c3)cc1)[C@@H]2CO | 17.9 µM
COCCCNc1nc(-c2ccc(OC)cc2)nc2ccccc12 | 20 µM
COc1cccc(-c2nc3c(s2)CN(S(=O)(=O)c2cc(C)ccc2C)CC3)c1 | 6.71 µM and 7.85 µM
Cc1cc(C(=O)Nc2ccc3c(c2)C(=O)N(C)[C@H]2CC[C@@H](CC(=O)NCc4ccc(-c5ccccc5)cc4)O[C@@H]2CO3)no1 | 20.8 µM

SMILES | AC50
COc1ccccc1-c1nc(CN(c2ccccc2OC)S(=O)(=O)c2ccccc2)c(C)o1 | 5.18 µM
CC(C)C#Cc1ccc([C@@H]2[C@H](CO)N3C(=O)CN(S(=O)(=O)c4ccccc4)C[C@@H]23)cc1 | > 39 µM (inactive)
O=C(C(=O)N1CCN(c2ncnc3c2nnn3Cc2ccccc2)CC1)c1c[nH]c2ccccc12 | 13.5 µM
CCCCOc1ccc2c(=O)c(-c3cc(C(=O)OC)oc3C)c(C(F)(F)F)oc2c1C | 4.38 µM and 7.67 µM
CCN(c1ccccc1C)S(=O)(=O)c1cc2c3c(c1)CCC(=O)N3CCC2 | 13 µM
CCCCNC(=O)CCC1N=C2c3ccccc3N=C(SCc3ccc(F)cc3)N2C1=O (stereo not drawn) | 24.8 µM
COc1cccc(-c2nc3c(s2)CN(C(=O)Nc2ccc(Cl)cc2)CC3)c1 | > 20 µM (inactive)
Cc1ccc(-c2coc(-c3ccc(NC(=O)Nc4ccc(Br)cc4)cc3)n2)cc1 | > 39 µM (inactive)
C(=C\c1ccc(C2[C@@H]3CN(Cc4ccc5c(c4)OCO5)C[C@H]2N3)cc1)/c1ccccc1 (stereo partly drawn) | 13.2 µM
O=C(Cc1cccnc1)N1CC(=O)N2[C@H](CO)[C@@H](c3ccc(/C=C/c4ccccc4)cc3)[C@@H]2C1 | 19.3 µM
COc1ccc(C#Cc2ccc([C@@H]3[C@H](CO)N4C(=O)CN(C(=O)NC(C)C)C[C@@H]34)cc2)cc1 | 28.3 µM
Cc1ccc(-c2nc(Cn3nnc(-c4nc(-c5cccs5)no4)c3C)c(C)o2)cc1 | 3.2 µM
CCN(CC)c1nc(-c2ccc(OC)cc2)nc2ccccc12 | 15.7 µM
O=S(=O)(c1cccs1)N1CCC2(CC1)NCCN=C2NCc1ccc(C(F)(F)F)cc1 | 23 µM
CCCNC(=O)N1C[C@@H]2N[C@H](C1)C2c1ccc(-c2ccccc2C)cc1 (stereo partly drawn) | 18.1 µM
O=C(NCCc1csc(-c2ccccc2)n1)[C@H]1CCCN1S(=O)(=O)c1ccc(Cl)s1 | 12.9 µM
COc1ccc(-c2nc(Nc3ccc(CN4CCC(C)CC4)cc3)c3ccccc3n2)cc1 | 9.71 µM and 14.6 µM
Cc1ccc(S(=O)(=O)N2CCC3(CC2)NCCN=C3NCc2ccccc2)c(C)c1 | 19.2 µM
CN(C)c1nc(N2CCCC2)nc2c1CCN(Cc1ccoc1)CC2 | 16 µM
COCCN(C)C(=O)c1cc(-c2ccn(-c3ccc(OC)cc3)n2)n2ccccc12 | 22.3 µM
CN(C)CCCNC(=O)c1cc(-c2cnc(-c3ccccc3)nc2)cn1C | 30.1 µM
COc1cccc(NC(=O)N2CCc3nc(-c4ccc(C)cc4)sc3C2)c1 | 26.8 µM
